Reference: ChEMBL document CHEMBL5543109, “Novel β-Hairpin Antimicrobial Peptide Containing the β-Turn Sequence of -NG- and the Tryptophan Zippers Facilitate Self-Assembly into Nanofibers, Exhibiting Excellent Antimicrobial Performance” (J Med Chem, 2024)
≈ marks a conversion by molar mass, not a printed value.

Experiments:
[1] = test system: Escherichia coli; experiment: Bactericidal activity against Escherichia coli ATCC 25922 incubated for 18 hrs by broth microdilution method; assay type: functional
[2] = test system: Klebsiella pneumoniae; experiment: Bactericidal activity against Klebsiella pneumoniae ATCC 700603 incubated for 18 hrs by broth microdilution method; assay type: functional
[3] = test system: Staphylococcus aureus; experiment: Bactericidal activity against Staphylococcus aureus ATCC 25923 incubated for 18 hrs by broth microdilution method; assay type: functional
[4] = test system: Escherichia coli; experiment: Antibacterial activity against Escherichia coli ATCC 25922 incubated for 18 hrs by broth microdilution method; assay type: functional
[5] = test system: Bacillus subtilis; experiment: Antibacterial activity against Bacillus subtilis ATCC 23857 incubated for 18 hrs by broth microdilution method; assay type: functional
[6] = test system: Staphylococcus epidermidis; experiment: Antibacterial activity against Staphylococcus epidermidis ATCC 12228 incubated for 18 hrs by broth microdilution method; assay type: functional
[7] = test system: Bacillus subtilis; experiment: Bactericidal activity against Bacillus subtilis ATCC 23857 incubated for 18 hrs by broth microdilution method; assay type: functional
[8] = test system: Staphylococcus aureus; experiment: Antibacterial activity against Staphylococcus aureus at 2 times MIC preincubated for 1 hr with chymotrypsin followed by enzyme inactivation and bacterial addition and measured after 18 hrs; assay type: functional; settings: time 19 hrs
[9] = test system: Klebsiella pneumoniae; experiment: Antibacterial activity against Klebsiella pneumoniae ATCC 700603 incubated for 18 hrs by broth microdilution method; assay type: functional
[10] = test system: Pseudomonas aeruginosa; experiment: Bactericidal activity against Pseudomonas aeruginosa ATCC 27853 incubated for 18 hrs by broth microdilution method; assay type: functional
[11] = test system: Staphylococcus aureus; experiment: Antibacterial activity against Staphylococcus aureus ATCC 25923 incubated for 18 hrs by broth microdilution method; assay type: functional
[12] = test system: Erythrocyte; experiment: Hemolytic activity in mouse erythrocytes assessed as concentration required to cause 10% hemolysis incubated for 1 hr; assay type: toxicity, cell-based
[13] = Retention time of the compound; assay type: physicochemical
[14] = test system: Staphylococcus epidermidis; experiment: Bactericidal activity against Staphylococcus epidermidis ATCC 12228 incubated for 18 hrs by broth microdilution method; assay type: functional
[15] = test system: Staphylococcus aureus; experiment: Antibacterial activity against Staphylococcus aureus at 2 times MIC preincubated for 1 hr with trypsin followed by enzyme inactivation and bacterial addition and measured after 18 hrs; assay type: functional; settings: time 19 hrs
[16] = test system: Pseudomonas aeruginosa; experiment: Antibacterial activity against Pseudomonas aeruginosa ATCC 27853 incubated for 18 hrs by broth microdilution method; assay type: functional
[17] = test system: Staphylococcus aureus; experiment: Antibacterial activity against methicillin resistant Staphylococcus aureus 113 incubated for 18 hrs by broth microdilution method; assay type: functional
[18] = test system: Staphylococcus aureus; experiment: Antibacterial activity against methicillin resistant Staphylococcus aureus 75 incubated for 18 hrs by broth microdilution method; assay type: functional
[19] = test system: Escherichia coli; experiment: Antibacterial activity against rifampicin resistant Escherichia coli incubated for 18 hrs by broth microdilution method; assay type: functional
[20] = test system: Staphylococcus aureus; experiment: Antibacterial activity against Staphylococcus aureus S125 incubated for 18 hrs by broth microdilution method; assay type: functional
[21] = test system: Staphylococcus aureus; experiment: Antibacterial activity against kanamycin resistant Staphylococcus aureus incubated for 18 hrs by broth microdilution method; assay type: functional
[22] = test system: Staphylococcus aureus; experiment: Antibacterial activity against Staphylococcus aureus incubated for 18 hrs by broth microdilution method; assay type: functional
[23] = test system: Escherichia coli; experiment: Antibacterial activity against Escherichia coli incubated for 18 hrs by broth microdilution method; assay type: functional
[24] = test system: Staphylococcus aureus; experiment: Antibacterial activity against methicillin resistant Staphylococcus aureus incubated for 18 hrs by broth microdilution method; assay type: functional
[25] = test system: Staphylococcus aureus; experiment: Antibacterial activity against Staphylococcus aureus S794 incubated for 18 hrs by broth microdilution method; assay type: functional
[26] = test system: Staphylococcus aureus; experiment: Antibacterial activity against rifampicin resistant Staphylococcus aureus incubated for 18 hrs by broth microdilution method; assay type: functional
[27] = test system: Escherichia coli; experiment: Antibacterial activity against kanamycin resistant Escherichia coli incubated for 18 hrs by broth microdilution method; assay type: functional
[28] = Self-assembly property of compound in water assessed as beta-sheet content; assay type: physicochemical
[29] = Self-assembly property of compound in PBS assessed as beta-sheet content; assay type: physicochemical; settings: buffer
[30] = Self-assembly property of compound in 50% TFE assessed as beta-sheet content; assay type: physicochemical

| SMILES | MIC [4] [µM] | MIC [5] [µM] | MIC [6] [µM] | MIC [9] [µM] | MIC [11] [µM] | Retention_time [13] [min] | MIC [16] [µM] | MBC [1] [µM] | MBC [2] [µM] | MBC [3] [µM] | MBC [7] [µM] | Activity [8] [%] | MBC [10] [µM] | MHC [12] [µM] | MBC [14] [µM] | Activity [15] [%] | MIC [17] [µM] | MIC [18] [µM] | MIC [19] [µM] | MIC [20] [µM] | also measured |
| --- | --- | --- | --- | --- | --- | --- | --- | --- | --- | --- | --- | --- | --- | --- | --- | --- | --- | --- | --- | --- | --- |
| C[C@@H](O)[C@H]1C(=O)N2C(C(=O)O)=C(SCCNC=N)C[C@H]12 [IMIPENEM ANHYDROUS] |  |  |  |  |  |  |  |  |  |  |  |  |  |  |  |  | 0.5 (≈ 0.15 µg/mL) | 256 (≈ 76.6 µg/mL) | 0.5 (≈ 0.15 µg/mL) | 0.5 (≈ 0.15 µg/mL) | MIC [21]: 0.5 µM (≈ 0.15 µg/mL); MIC [22]: 0.5 µM (≈ 0.15 µg/mL); MIC [23]: 0.5 µM (≈ 0.15 µg/mL); MIC [24]: 32 µM (≈ 9.58 µg/mL); MIC [25]: 0.5 µM (≈ 0.15 µg/mL); MIC [26]: 0.5 µM (≈ 0.15 µg/mL); MIC [27]: 8 µM (≈ 2.39 µg/mL) |
| CO/N=C(\C(=O)N[C@@H]1C(=O)N2C(C(=O)O)=C(COC(C)=O)CS[C@H]12)c1csc(N)n1 [CEFOTAXIME] | < 1 | 64 (≈ 29.2 µg/mL) | < 1 | 4 (≈ 1.82 µg/mL) | 2 (≈ 0.911 µg/mL) |  | 8 (≈ 3.64 µg/mL) |  |  |  |  |  |  |  |  |  | 32 (≈ 14.6 µg/mL) | 256 (≈ 117 µg/mL) | 0.5 (≈ 0.228 µg/mL) | 8 (≈ 3.64 µg/mL) | MIC [21]: 0.5 µM (≈ 0.228 µg/mL); MIC [22]: 2 µM (≈ 0.911 µg/mL); MIC [23]: 0.5 µM (≈ 0.228 µg/mL); MIC [24]: 256 µM (≈ 117 µg/mL); MIC [25]: 256 µM (≈ 117 µg/mL); MIC [26]: 0.5 µM (≈ 0.228 µg/mL); MIC [27]: 64 µM (≈ 29.2 µg/mL) |
| CN[C@@H]1[C@H](O[C@H]2[C@H](O[C@H]3[C@H](O)[C@@H](O)[C@H](N=C(N)N)[C@@H](O)[C@@H]3N=C(N)N)O[C@@H](C)[C@]2(O)C=O)O[C@@H](CO)[C@H](O)[C@H]1O [STREPTOMYCIN] |  |  |  |  |  |  |  |  |  |  |  |  |  |  |  |  | 64 (≈ 37.2 µg/mL) | 32 (≈ 18.6 µg/mL) | 2 (≈ 1.16 µg/mL) | 32 (≈ 18.6 µg/mL) | MIC [21]: 4 µM (≈ 2.33 µg/mL); MIC [22]: 0.5 µM (≈ 0.291 µg/mL); MIC [23]: 4 µM (≈ 2.33 µg/mL); MIC [24]: 32 µM (≈ 18.6 µg/mL); MIC [25]: 128 µM (≈ 74.4 µg/mL); MIC [26]: 2 µM (≈ 1.16 µg/mL); MIC [27]: 64 µM (≈ 37.2 µg/mL) |
| NCCCC[C@@H](N)C(=O)N[C@H](Cc1c[nH]c2ccccc12)C(=O)N[C@H](CCCCN)C(=O)N[C@H](Cc1c[nH]c2ccccc12)C(=O)N[C@H](CCCCN)C(=O)N1CCC[C@@H]1C(=O)NCC(=O)N[C@H](CCCCN)C(=O)N[C@H](Cc1c[nH]c2ccccc12)C(=O)N[C@H](CCCCN)C(=O)N[C@H](Cc1c[nH]c2ccccc12)C(=O)N[C@H](CCCCN)C(N)=O | 8 (≈ 13.5 µg/mL) | 4 (≈ 6.74 µg/mL) | 4 (≈ 6.74 µg/mL) | 16 (≈ 27 µg/mL) | 16 (≈ 27 µg/mL) | 11.539 | 8 (≈ 13.5 µg/mL) | 8 (≈ 13.5 µg/mL) | 16 (≈ 27 µg/mL) | 32 (≈ 53.9 µg/mL) | 8 (≈ 13.5 µg/mL) | 100 | 32 (≈ 53.9 µg/mL) | > 512 | 16 (≈ 27 µg/mL) | 100 |  |  |  |  | Activity [28]: 35%; Activity [29]: 47%; Activity [30]: 30.4% |

More lines, main results first:

| MIC [4] [µM] | MIC [5] [µM] | MIC [6] [µM] | MIC [9] [µM] | MIC [11] [µM] | Retention_time [13] [min] | MIC [16] [µM] | SMILES | MBC [1] [µM] | MBC [2] [µM] | MBC [3] [µM] | MBC [7] [µM] | Activity [8] [%] | MBC [10] [µM] | MHC [12] [µM] | MBC [14] [µM] | Activity [15] [%] | MIC [17] [µM] | MIC [18] [µM] | MIC [19] [µM] | MIC [20] [µM] | also measured |
| --- | --- | --- | --- | --- | --- | --- | --- | --- | --- | --- | --- | --- | --- | --- | --- | --- | --- | --- | --- | --- | --- |
| 8 (≈ 13.6 µg/mL) | 2 (≈ 3.4 µg/mL) | 4 (≈ 6.81 µg/mL) | 64 (≈ 109 µg/mL) | 16 (≈ 27.2 µg/mL) | 11.03 | 32 (≈ 54.5 µg/mL) | NCCCC[C@@H](N)C(=O)N[C@H](Cc1c[nH]c2ccccc12)C(=O)N[C@H](CCCCN)C(=O)N[C@H](Cc1c[nH]c2ccccc12)C(=O)N[C@H](CCCCN)C(=O)N[C@@H](CC(N)=O)C(=O)NCC(=O)N[C@H](CCCCN)C(=O)N[C@H](Cc1c[nH]c2ccccc12)C(=O)N[C@H](CCCCN)C(=O)N[C@H](Cc1c[nH]c2ccccc12)C(=O)N[C@H](CCCCN)C(N)=O | 8 (≈ 13.6 µg/mL) | 128 (≈ 218 µg/mL) | 64 (≈ 109 µg/mL) | 8 (≈ 13.6 µg/mL) | 100 | 128 (≈ 218 µg/mL) | > 512 | 8 (≈ 13.6 µg/mL) | 100 |  |  |  |  |  |
| 4 (≈ 7.36 µg/mL) | 2 (≈ 3.68 µg/mL) | 4 (≈ 7.36 µg/mL) | 8 (≈ 14.7 µg/mL) | 4 (≈ 7.36 µg/mL) | 14.321 | 8 (≈ 14.7 µg/mL) | NCCCC[C@@H](NC(=O)[C@H](N)Cc1c[nH]c2ccccc12)C(=O)N[C@H](Cc1c[nH]c2ccccc12)C(=O)N[C@H](CCCCN)C(=O)N[C@H](Cc1c[nH]c2ccccc12)C(=O)N1CCC[C@@H]1C(=O)N1CCC[C@H]1C(=O)N[C@H](Cc1c[nH]c2ccccc12)C(=O)N[C@H](CCCCN)C(=O)N[C@H](Cc1c[nH]c2ccccc12)C(=O)N[C@H](CCCCN)C(=O)N[C@H](Cc1c[nH]c2ccccc12)C(N)=O | 4 (≈ 7.36 µg/mL) | 16 (≈ 29.5 µg/mL) | 8 (≈ 14.7 µg/mL) | 2 (≈ 3.68 µg/mL) | 100 | 32 (≈ 58.9 µg/mL) | 243.5 | 8 (≈ 14.7 µg/mL) | 100 |  |  |  |  |  |
